Source: patent publication US20120165331A1, “Di/tri-aza-spiro-C9-C11alkanes” (priority 2010, published 2012)

What was measured:
human orexin 1 receptor = target: T1, human orexin 1 receptor (Homo sapiens, UniProt O43613); test: Calcium accumulation in cells (FLIPR), antagonism of orexin A, human orexin 1 receptor; assay type: cell-based; settings: for inhibition at 10 µM: measured at a concentration of 10 μM of compound, read-out: FLIPR hOx1R % inhibition; for Ki: calcium accumulation, antagonism of orexin A, Cheng-Prusoff corrected, read-out: FLIPR hOx1R Ki
T1 construct: expressed in transfected cells
T1 sequence (O43613 1-425): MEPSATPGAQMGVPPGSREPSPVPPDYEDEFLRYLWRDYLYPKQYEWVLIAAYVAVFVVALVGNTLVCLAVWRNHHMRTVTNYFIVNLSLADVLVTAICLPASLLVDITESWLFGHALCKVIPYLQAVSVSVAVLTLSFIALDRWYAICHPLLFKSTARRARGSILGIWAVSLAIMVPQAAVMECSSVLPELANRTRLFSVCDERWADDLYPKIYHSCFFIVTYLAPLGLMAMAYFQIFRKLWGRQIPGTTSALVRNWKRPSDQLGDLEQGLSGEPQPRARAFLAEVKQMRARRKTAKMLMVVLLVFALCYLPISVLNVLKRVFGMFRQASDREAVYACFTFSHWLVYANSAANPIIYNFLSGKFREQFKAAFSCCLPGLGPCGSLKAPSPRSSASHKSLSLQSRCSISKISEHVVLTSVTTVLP

human orexin 2 receptor = target: T2, human orexin 2 receptor (Homo sapiens, UniProt O43614); test: Calcium accumulation in cells (FLIPR), antagonism of orexin A, human orexin 2 receptor; assay type: cell-based; settings: for inhibition at 10 µM: measured at a concentration of 10 μM of compound, read-out: FLIPR hOx2R % inhibition; for Ki: calcium accumulation, antagonism of orexin A, Cheng-Prusoff corrected, read-out: FLIPR hOx2R Ki
T2 construct: expressed in transfected cells
T2 sequence (O43614 1-444): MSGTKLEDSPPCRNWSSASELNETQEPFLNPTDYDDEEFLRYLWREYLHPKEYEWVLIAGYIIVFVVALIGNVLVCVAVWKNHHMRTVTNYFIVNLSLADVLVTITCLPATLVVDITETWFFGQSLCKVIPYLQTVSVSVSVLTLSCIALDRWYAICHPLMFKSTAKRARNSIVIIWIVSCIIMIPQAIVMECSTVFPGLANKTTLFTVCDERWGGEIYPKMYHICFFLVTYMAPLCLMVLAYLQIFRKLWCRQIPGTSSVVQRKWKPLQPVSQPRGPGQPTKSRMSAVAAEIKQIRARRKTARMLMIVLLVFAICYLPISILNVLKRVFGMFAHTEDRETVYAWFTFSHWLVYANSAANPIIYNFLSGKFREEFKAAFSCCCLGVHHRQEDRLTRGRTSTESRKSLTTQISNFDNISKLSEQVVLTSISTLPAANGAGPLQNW

| Structure (SMILES) | inhibition at 10 µM (human orexin 1 receptor) | inhibition at 10 µM (human orexin 2 receptor) | Ki (human orexin 1 receptor) | Ki (human orexin 2 receptor) |
| --- | --- | --- | --- | --- |
| O=C1N(Cc2c[nH]c3ccccc23)CCC12CCN(c1nc3cc(Cl)ccc3o1)C2 (centres unmarked) [Example 5.15, 2-((1H-Indol-3-yl)methyl)-7-(5-chlorobenzo[d]oxazol-2-yl)-2,7-diazaspiro[4.4]nonan-1-one] | 29% | 37% |  |  |
| O=C1N(Cc2c[nH]c3ccccc23)CCC12CCN(c1ncc3cc(F)ccc3n1)C2 (centres unmarked) [Example 5.16, 2-((1H-Indol-3-yl)methyl)-7-(6-fluoroquinazolin-2-yl)-2,7-diazaspiro[4.4]nonan-1-one] |  |  | 1120 nM | 509 nM |
| O=C1N(Cc2c[nH]c3ccccc23)CCC12CCN(c1cc(C(F)(F)F)ncn1)C2 (centres unmarked) [Example 5.17, 2-((1H-Indol-3-yl)methyl)-7-(6-(trifluoromethyl)pyrimidin-4-yl)-2,7-diazaspiro[4.4]nonan-1-one] | 49% |  |  | 1790 nM |
| O=C1N(Cc2c[nH]c3ccccc23)CCC12CCN(c1nccc(-n3ccnc3)n1)C2 (centres unmarked) [Example 5.18, 7-(4-(1H-imidazol-1-yl)pyrimidin-2-yl)-2-((1H-indol-3-yl)methyl)-2,7-diazaspiro[4.4]nonan-1-one] |  |  | 1890 nM | 1240 nM |
| O=C1N(Cc2c[nH]c3ccccc23)CCC12CCN(c1ccnc(-n3ccnc3)n1)C2 (centres unmarked) [Example 5.19, 7-(2-(1H-imidazol-1-yl)pyrimidin-4-yl)-2-((1H-indol-3-yl)methyl)-2,7-diazaspiro[4.4]nonan-1-one] |  |  | 1190 nM | 665 nM |
| O=C1N(Cc2c[nH]c3ccccc23)CCC12CCN(c1ccc(-n3ccnc3)nn1)C2 (centres unmarked) [Example 5.20, 7-(6-(1H-imidazol-1-yl)pyridazin-3-yl)-2-((1H-indol-3-yl)methyl)-2,7-diazaspiro[4.4]nonan-1-one] | 34% | 33% |  |  |
| COc1cc(N2CCC3(CCN(Cc4c[nH]c5ccccc45)C3=O)C2)nc(C2CC2)n1 (centres unmarked) [Example 5.21, 2-((1H-indol-3-yl)methyl)-7-(2-cyclopropyl-6-methoxypyrimidin-4-yl)-2,7-diazaspiro[4.4]nonan-1-one] |  |  | 1300 nM | 370 nM |
| Cn1ccnc1-c1ccnc(N2CCC3(CCN(Cc4c[nH]c5ccccc45)C3=O)C2)n1 (centres unmarked) [Example 5.22, 2-((1H-indol-3-yl)methyl)-7-(4-(1-methyl-1H-imidazol-2-yl)pyrimidin-2-yl)-2,7-diazaspiro[4.4]nonan-1-one] |  |  | 923 nM | 489 nM |
| Cc1cnc(N2CCC3(CCN(Cc4c[nH]c5ccccc45)C3=O)C2)s1 (centres unmarked) [Example 5.23, 2-((1H-indol-3-yl)methyl)-7-(5-methylthiazol-2-yl)-2,7-diazaspiro[4.4]nonan-1-one] | 67% |  |  | 645 nM |
| O=C1N(Cc2c[nH]c3ccccc23)CCC12CCN(c1cc3c(nn1)CCOC3)C2 (centres unmarked) [Example 5.24, 2-((1H-indol-3-yl)methyl)-7-(7,8-dihydro-5H-pyrano[4,3-c]pyridazin-3-yl)-2,7-diazaspiro[4.4]nonan-1-one] | 25% | 54% |  |  |
| Cc1cc(N2CCOCC2)nc(N2CCC3(CCN(Cc4c[nH]c5ccccc45)C3=O)C2)n1 (centres unmarked) [Example 5.25, 2-((1H-indol-3-yl)methyl)-7-(4-methyl-6-morpholinopyrimidin-2-yl)-2,7-diazaspiro[4.4]nonan-1-one] | 71% | 66% |  |  |
| Cc1nc(N2CCOCC2)cc(N2CCC3(CCN(Cc4c[nH]c5ccccc45)C3=O)C2)n1 (centres unmarked) [Example 5.26, 2-((1H-indol-3-yl)methyl)-7-(2-methyl-6-morpholinopyrimidin-4-yl)-2,7-diazaspiro[4.4]nonan-1-one] | 37% | 47% |  |  |
| Cc1cccc(N2CCC3(CCN(Cc4c[nH]c5ccccc45)C3=O)C2)n1 (centres unmarked) [Example 5.27, 2-((1H-indol-3-yl)methyl)-7-(6-methylpyridin-2-yl)-2,7-diazaspiro[4.4]nonan-1-one] |  |  | 2390 nM | 298 nM |
| Cc1ccnc(N2CCC3(CCN(Cc4c[nH]c5ccccc45)C3=O)C2)c1 (centres unmarked) [Example 5.28, 2-((1H-indol-3-yl)methyl)-7-(4-methylpyridin-2-yl)-2,7-diazaspiro[4.4]nonan-1-one] | 34% |  |  | 182 nM |
| Cc1cc(C)nc(N2CCC3(CCN(Cc4c[nH]c5ccccc45)C3=O)C2)c1 (centres unmarked) [Example 5.29, 2-((1H-indol-3-yl)methyl)-7-(4,6-dimethylpyridin-2-yl)-2,7-diazaspiro[4.4]nonan-1-one] |  |  | 1490 nM | 114 nM |
| COc1ccnc(N2CCC3(CCN(Cc4c[nH]c5ccccc45)C3=O)C2)c1 (centres unmarked) [Example 5.30, 2-((1H-indol-3-yl)methyl)-7-(4-methoxypyridin-2-yl)-2,7-diazaspiro[4.4]nonan-1-one] |  |  | 4350 nM | 193 nM |
| Cc1cc(N2CCC3(CCN(Cc4c[nH]c5ccccc45)C3=O)C2)nc(C)n1 (centres unmarked) [Example 5.31, 2-((1H-indol-3-yl)methyl)-7-(2,6-dimethylpyrimidin-4-yl)-2,7-diazaspiro[4.4]nonan-1-one] | < 10% | 24% |  |  |
| Cn1ccc2ccnc(N3CCC4(CCN(Cc5c[nH]c6ccccc56)C4=O)C3)c21 (centres unmarked) [Example 5.32, 2-((1H-indol-3-yl)methyl)-7-(1-methyl-1H-pyrrolo[2,3-c]pyridin-7-yl)-2,7-diazaspiro[4.4]nonan-1-one] |  |  | 4470 nM | 2290 nM |
| COc1cc(N2CCC3(CCN(Cc4c[nH]c5ccccc45)C3=O)C2)nc2ccnn12 (centres unmarked) [Example 5.33, 2-((1H-indol-3-yl)methyl)-7-(7-methoxypyrazolo[1,5-a]pyrimidin-5-yl)-2,7-diazaspiro[4.4]nonan-1-one] | < 10% | < 10% |  |  |
| Cc1noc(-c2ccnc(N3CCC4(CCN(Cc5c[nH]c6ccccc56)C4=O)C3)c2)n1 (centres unmarked) [Example 5.34, 2-((1H-indol-3-yl)methyl)-7-(4-(3-methyl-1,2,4-oxadiazol-5-yl)pyridin-2-yl)-2,7-diazaspiro[4.4]nonan-1-one] |  |  | 2150 nM | 1470 nM |
| O=C1N(Cc2c[nH]c3ccccc23)CCC12CCN(c1cc(N3CCCC3)ncn1)C2 (centres unmarked) [Example 5.35, 2-((1H-indol-3-yl)methyl)-7-(6-(pyrrolidin-1-yl)pyrimidin-4-yl)-2,7-diazaspiro[4.4]nonan-1-one] |  |  | 1770 nM | 2720 nM |
| COc1nc(C)cc(N2CCC3(CCN(Cc4c[nH]c5ccccc45)C3=O)C2)n1 (centres unmarked) [Example 5.36, 2-((1H-indol-3-yl)methyl)-7-(2-methoxy-6-methylpyrimidin-4-yl)-2,7-diazaspiro[4.4]nonan-1-one] | 18% |  |  | 927 nM |
| Cc1csc(N2CCC3(CCN(Cc4c[nH]c5ccccc45)C3=O)C2)n1 (centres unmarked) [Example 5.37, 2-((1H-indol-3-yl)methyl)-7-(4-methylthiazol-2-yl)-2,7-diazaspiro[4.4]nonan-1-one] |  |  | 3590 nM | 1410 nM |
| COc1cc(N2CCC3(CCN(Cc4c[nH]c5ccccc45)C3=O)C2)n2nccc2n1 (centres unmarked) [Example 5.38, 2-((1H-indol-3-yl)methyl)-7-(5-methoxypyrazolo[1,5-a]pyrimidin-7-yl)-2,7-diazaspiro[4.4]nonan-1-one] |  |  | 2410 nM | 1020 nM |
| CC(C)c1ccnc(N2CCC3(CCN(Cc4c[nH]c5ccccc45)C3=O)C2)n1 (centres unmarked) [Example 5.39, 2-((1H-indol-3-yl)methyl)-7-(4-isopropylpyrimidin-2-yl)-2,7-diazaspiro[4.4]nonan-1-one] |  |  | 1210 nM | 283 nM |
| Cc1cn2ccnc(N3CCC4(CCN(Cc5c[nH]c6ccccc56)C4=O)C3)c2n1 (centres unmarked) [Example 5.40, 2-((1H-indol-3-yl)methyl)-7-(2-methylimidazo[1,2-a]pyrazin-8-yl)-2,7-diazaspiro[4.4]nonan-1-one] |  |  | 1730 nM | 188 nM |
| O=C1N(Cc2c[nH]c3ccccc23)CCC12CCN(c1nccc(C(F)(F)F)n1)C2 (centres unmarked) [Example 5.41, 2-((1H-indol-3-yl)methyl)-7-(4-(trifluoromethyl)pyrimidin-2-yl)-2,7-diazaspiro[4.4]nonan-1-one] |  |  | 2410 nM | 343 nM |
| COc1cc(C)nc(N2CCC3(CCN(Cc4ccccc4-c4nc(C)no4)C3=O)C2)n1 (centres unmarked) [Example 5.42, 7-(4-methoxy-6-methylpyrimidin-2-yl)-2-(2-(3-methyl-1,2,4-oxadiazol-5-yl)benzyl)-2,7-diazaspiro[4.4]nonan-1-one] |  |  | 1950 nM | 180 nM |
